# Test results from patent US9255295B2, “Method for evaluating the sensitizing potential of a test compound” (IMMUNOSEARCH, priority 2010, dated 2016).
# Like-named read-outs stand apart in the source and are kept apart here.
# System: ARE gene family (AKR1B10, AKR1C1, AKR1C2, CYP1B1, FTH1P, FTL, G6PD, GCLM, NQO2, SLC7A11, TXNRD1, UGT1A1, UGT1A9, YWHAZ, CD36, CYP1A1, GCLC, HMOX1, NQO1, PSME2 …)
smiles,measurement,setting,value
O=CC=O [Glyoxal],AHR NUMBER OF GENES grade,0.1%,"0 (if this expression is lower, the grade is 0)"
same,AKR1B10 NUMBER OF GENES grade,0.1%,"0 (if this expression is lower, the grade is 0)"
same,AKR1C1 NUMBER OF GENES grade,0.1%,"0 (if this expression is lower, the grade is 0)"
same,AKR1C2 NUMBER OF GENES grade,0.1%,"0 (if this expression is lower, the grade is 0)"
same,ARE >1.3 (number of genes),0.1%,0
same,CD36 NUMBER OF GENES grade,0.1%,"0 (if this expression is lower, the grade is 0)"
same,CYP1A1 NUMBER OF GENES grade,0.1%,"0 (if this expression is lower, the grade is 0)"
same,CYP1B1 NUMBER OF GENES grade,0.1%,"0 (if this expression is lower, the grade is 0)"
same,FTH1P NUMBER OF GENES grade,0.1%,"0 (if this expression is lower, the grade is 0)"
same,FTL NUMBER OF GENES grade,0.1%,"0 (if this expression is lower, the grade is 0)"
same,GCLC NUMBER OF GENES grade,0.1%,"0 (if this expression is lower, the grade is 0)"
same,GCLM NUMBER OF GENES grade,0.1%,"0 (if this expression is lower, the grade is 0)"
same,HMOX1 NUMBER OF GENES grade,0.1%,"0 (if this expression is lower, the grade is 0)"
same,NQO1 NUMBER OF GENES grade,0.1%,"0 (if this expression is lower, the grade is 0)"
same,NQO2 NUMBER OF GENES grade,0.1%,"0 (if this expression is lower, the grade is 0)"
same,S100A8 NUMBER OF GENES grade,0.1%,"0 (if this expression is lower, the grade is 0)"
same,SLC7A11 NUMBER OF GENES grade,0.1%,"0 (if this expression is lower, the grade is 0)"
same,TOTAL ARE (number of genes),0.1%,0
same,TXNRD1 NUMBER OF GENES grade,0.1%,"0 (if this expression is lower, the grade is 0)"
same,UGT1A1 NUMBER OF GENES grade,0.1%,"0 (if this expression is lower, the grade is 0)"
same,UGT1A9 NUMBER OF GENES grade,0.1%,"0 (if this expression is lower, the grade is 0)"
same,AHR expression,"0.1%, compared to the control",0.9
same,AKR1B10 expression,"0.1%, compared to the control",0.6
same,AKR1C1 expression,"0.1%, compared to the control",0.8
same,AKR1C2 expression,"0.1%, compared to the control",0.8
same,CD36 expression,"0.1%, compared to the control",1.1
same,CYP1A1 expression,"0.1%, compared to the control",0.6
same,CYP1B1 expression,"0.1%, compared to the control",0.6
same,FTH1P expression,"0.1%, compared to the control",0.9
same,FTL expression,"0.1%, compared to the control",1.0
same,GCLC expression,"0.1%, compared to the control",1.0
same,GCLM expression,"0.1%, compared to the control",0.9
same,HMOX1 expression,"0.1%, compared to the control",1.0
same,NQO1 expression,"0.1%, compared to the control",1.0
same,NQO2 expression,"0.1%, compared to the control",0.8
same,S100A8 expression,"0.1%, compared to the control",0.7
same,SLC7A11 expression,"0.1%, compared to the control",1.0
same,TXNRD1 expression,"0.1%, compared to the control",1.0
same,UGT1A1 expression,"0.1%, compared to the control",0.9
same,UGT1A9 expression,"0.1%, compared to the control",0.3
same,AHR NUMBER OF GENES grade,1%,"0 (if this expression is lower, the grade is 0)"
same,AKR1B10 NUMBER OF GENES grade,1%,"0 (if this expression is lower, the grade is 0)"
same,AKR1C1 NUMBER OF GENES grade,1%,"0 (if this expression is lower, the grade is 0)"
same,AKR1C2 NUMBER OF GENES grade,1%,"0 (if this expression is lower, the grade is 0)"
same,ARE >1.3 (number of genes),1%,1
same,CD36 expression compared to control,1%,1.1
same,CD36 grade (NUMBER OF GENES),1%,"0 (if this expression is lower, the grade is 0)"
same,CYP1A1 NUMBER OF GENES grade,1%,"0 (if this expression is lower, the grade is 0)"
same,CYP1B1 NUMBER OF GENES grade,1%,"0 (if this expression is lower, the grade is 0)"
same,FTH1P NUMBER OF GENES grade,1%,"0 (if this expression is lower, the grade is 0)"
same,FTL NUMBER OF GENES grade,1%,"0 (if this expression is lower, the grade is 0)"
same,GCLC NUMBER OF GENES grade,1%,"0 (if this expression is lower, the grade is 0)"
same,GCLM NUMBER OF GENES grade,1%,"0 (if this expression is lower, the grade is 0)"
same,HMOX1 NUMBER OF GENES grade,1%,"0 (if this expression is lower, the grade is 0)"
same,NQO1 NUMBER OF GENES grade,1%,"0 (if this expression is lower, the grade is 0)"
same,NQO2 NUMBER OF GENES grade,1%,"0 (if this expression is lower, the grade is 0)"
same,S100A8 expression compared to control,1%,0.9
same,S100A8 grade (NUMBER OF GENES),1%,"0 (if this expression is lower, the grade is 0)"
same,SLC7A11 NUMBER OF GENES grade,1%,"1 (If the expression is greater than 1.3 compared to the control, a grade of 11s given)"
same,TOTAL ARE (number of genes),1%,1
same,TXNRD1 NUMBER OF GENES grade,1%,"0 (if this expression is lower, the grade is 0)"
same,UGT1A1 NUMBER OF GENES grade,1%,"0 (if this expression is lower, the grade is 0)"
same,UGT1A9 NUMBER OF GENES grade,1%,"0 (if this expression is lower, the grade is 0)"
same,AHR expression,"1%, compared to the control",1.1
same,AKR1B10 expression,"1%, compared to the control",1.1
same,AKR1C1 expression,"1%, compared to the control",1.0
same,AKR1C2 expression,"1%, compared to the control",1.0
same,CYP1A1 expression,"1%, compared to the control",0.9
same,CYP1B1 expression,"1%, compared to the control",1.1
same,FTH1P expression,"1%, compared to the control",1.0
same,FTL expression,"1%, compared to the control",1.1
same,GCLC expression,"1%, compared to the control",1.1
same,GCLM expression,"1%, compared to the control",0.9
same,HMOX1 expression,"1%, compared to the control",0.9
same,NQO1 expression,"1%, compared to the control",1.1
same,NQO2 expression,"1%, compared to the control",1.0
same,SLC7A11 expression,"1%, compared to the control",1.4
same,TXNRD1 expression,"1%, compared to the control",0.9
same,UGT1A1 expression,"1%, compared to the control",1.2
same,UGT1A9 expression,"1%, compared to the control",0.6
same,AHR NUMBER OF GENES grade,10%,"0 (if this expression is lower, the grade is 0)"
same,AKR1B10 NUMBER OF GENES grade,10%,"0 (if this expression is lower, the grade is 0)"
same,AKR1C1 NUMBER OF GENES grade,10%,"0 (if this expression is lower, the grade is 0)"
same,AKR1C2 NUMBER OF GENES grade,10%,"0 (if this expression is lower, the grade is 0)"
same,ARE >1.3 (number of genes),10%,3
same,CD36 expression compared to control,10%,1.3
same,CD36 grade (NUMBER OF GENES),10%,"1 (If the expression is greater than 1.3 compared to the control, a grade of 11s given)"
same,CYP1A1 NUMBER OF GENES grade,10%,"0 (if this expression is lower, the grade is 0)"
same,CYP1B1 NUMBER OF GENES grade,10%,"0 (if this expression is lower, the grade is 0)"
same,FTH1P NUMBER OF GENES grade,10%,"0 (if this expression is lower, the grade is 0)"
same,FTL NUMBER OF GENES grade,10%,"0 (if this expression is lower, the grade is 0)"
same,GCLC NUMBER OF GENES grade,10%,"0 (if this expression is lower, the grade is 0)"
same,GCLM NUMBER OF GENES grade,10%,"1 (If the expression is greater than 1.3 compared to the control, a grade of 11s given)"
same,HMOX1 NUMBER OF GENES grade,10%,"0 (if this expression is lower, the grade is 0)"
same,NQO1 NUMBER OF GENES grade,10%,"0 (if this expression is lower, the grade is 0)"
same,NQO2 NUMBER OF GENES grade,10%,"0 (if this expression is lower, the grade is 0)"
same,S100A8 expression compared to control,10%,0.9
same,S100A8 grade (NUMBER OF GENES),10%,"0 (if this expression is lower, the grade is 0)"
same,SLC7A11 NUMBER OF GENES grade,10%,"1 (If the expression is greater than 1.3 compared to the control, a grade of 11s given)"
same,TOTAL ARE (number of genes),10%,3
same,TXNRD1 NUMBER OF GENES grade,10%,"1 (If the expression is greater than 1.3 compared to the control, a grade of 11s given)"
same,UGT1A1 NUMBER OF GENES grade,10%,"0 (if this expression is lower, the grade is 0)"
same,UGT1A9 NUMBER OF GENES grade,10%,"0 (if this expression is lower, the grade is 0)"
same,AHR expression,"10%, compared to the control",1.0
same,AKR1B10 expression,"10%, compared to the control",0.7
same,AKR1C1 expression,"10%, compared to the control",1.0
same,AKR1C2 expression,"10%, compared to the control",1.2
same,CYP1A1 expression,"10%, compared to the control",0.0
same,CYP1B1 expression,"10%, compared to the control",0.8
same,FTH1P expression,"10%, compared to the control",1.1
same,FTL expression,"10%, compared to the control",1.1
same,GCLC expression,"10%, compared to the control",1.1
same,GCLM expression,"10%, compared to the control",1.7
same,HMOX1 expression,"10%, compared to the control",1.0
same,NQO1 expression,"10%, compared to the control",1.2
same,NQO2 expression,"10%, compared to the control",1.0
same,SLC7A11 expression,"10%, compared to the control",1.9
same,TXNRD1 expression,"10%, compared to the control",1.3
same,UGT1A1 expression,"10%, compared to the control",1.0
same,UGT1A9 expression,"10%, compared to the control",0.2
same,AHR NUMBER OF GENES grade,50%,"0 (if this expression is lower, the grade is 0)"
same,AKR1B10 NUMBER OF GENES grade,50%,"0 (if this expression is lower, the grade is 0)"
same,AKR1C1 NUMBER OF GENES grade,50%,"0 (if this expression is lower, the grade is 0)"
same,AKR1C2 NUMBER OF GENES grade,50%,"0 (if this expression is lower, the grade is 0)"
same,ARE >1.3 (number of genes),50%,6
same,CD36 expression compared to control,50%,1.1
same,CD36 grade (NUMBER OF GENES),50%,"0 (if this expression is lower, the grade is 0)"
same,CYP1A1 NUMBER OF GENES grade,50%,"0 (if this expression is lower, the grade is 0)"
same,CYP1B1 NUMBER OF GENES grade,50%,"1 (If the expression is greater than 1.3 compared to the control, a grade of 11s given)"
same,FTH1P NUMBER OF GENES grade,50%,"0 (if this expression is lower, the grade is 0)"
same,FTL NUMBER OF GENES grade,50%,"0 (if this expression is lower, the grade is 0)"
same,GCLC NUMBER OF GENES grade,50%,"0 (if this expression is lower, the grade is 0)"
same,GCLM NUMBER OF GENES grade,50%,"1 (If the expression is greater than 1.3 compared to the control, a grade of 11s given)"
same,HMOX1 NUMBER OF GENES grade,50%,"1 (If the expression is greater than 1.3 compared to the control, a grade of 11s given)"
same,NQO1 NUMBER OF GENES grade,50%,"0 (if this expression is lower, the grade is 0)"
same,NQO2 NUMBER OF GENES grade,50%,"0 (if this expression is lower, the grade is 0)"
same,S100A8 expression compared to control,50%,0.9
same,S100A8 grade (NUMBER OF GENES),50%,"0 (if this expression is lower, the grade is 0)"
same,SLC7A11 NUMBER OF GENES grade,50%,"0 (if this expression is lower, the grade is 0)"
same,TOTAL ARE (number of genes),50%,6
same,TXNRD1 NUMBER OF GENES grade,50%,"1 (If the expression is greater than 1.3 compared to the control, a grade of 11s given)"
same,UGT1A1 NUMBER OF GENES grade,50%,"1 (If the expression is greater than 1.3 compared to the control, a grade of 11s given)"
same,UGT1A9 NUMBER OF GENES grade,50%,"1 (If the expression is greater than 1.3 compared to the control, a grade of 11s given)"
same,AHR expression,"50%, compared to the control",0.9
same,AKR1B10 expression,"50%, compared to the control",0.8
same,AKR1C1 expression,"50%, compared to the control",0.8
same,AKR1C2 expression,"50%, compared to the control",0.9
same,CYP1A1 expression,"50%, compared to the control",1.1
same,CYP1B1 expression,"50%, compared to the control",3.3
same,FTH1P expression,"50%, compared to the control",0.9
same,FTL expression,"50%, compared to the control",0.9
same,GCLC expression,"50%, compared to the control",0.9
same,GCLM expression,"50%, compared to the control",1.5
same,HMOX1 expression,"50%, compared to the control",1.4
same,NQO1 expression,"50%, compared to the control",0.9
same,NQO2 expression,"50%, compared to the control",0.9
same,SLC7A11 expression,"50%, compared to the control",1.0
same,TXNRD1 expression,"50%, compared to the control",1.4
same,UGT1A1 expression,"50%, compared to the control",1.4
same,UGT1A9 expression,"50%, compared to the control",1.3
